Legend:
RPMI-8226 (Leukemia) = assay: NCI-60 screen (SRB, 48 h); details: Homo sapiens; for GI50: RPMI-8226; for IC (TGI): RPMI-8226, 48 h, read-out: TGI; for CC50: RPMI-8226, read-out: LC50
SR (Leukemia) = assay: NCI-60 screen (SRB, 48 h); assay type: cell-based; details: for GI50 / CC50: Homo sapiens; for CC50: read-out: LC50 (the source's name)
OVCAR-4 (Ovarian cancer) = assay: NCI-60 screen (SRB, 48 h); assay type: cell-based; details: Homo sapiens; for IC (TGI): OVCAR-4, 48 h; for GI50 / CC50: OVCAR-4; for GI50: read-out: GI50; for CC50: read-out: LC50 (the source's name)
HOP-92 (NSC lung cancer) = assay: NCI-60 screen (SRB, 48 h); details: Homo sapiens; for GI50: HOP-92; for IC (TGI): HOP-92, 48 h, read-out: TGI; for CC50: HOP-92, read-out: LC50
[1] = system: MDA-MB-468 (Breast cancer); assay: cells; details: Homo sapiens; for GI50: MDA-MB-468; for IC (TGI): MDA-MB-468, 48 h, read-out: TGI; for CC50: MDA-MB-468, read-out: LC50
LOX IMVI (Melanoma) = assay: NCI-60 screen (SRB, 48 h); assay type: cell-based; details: Homo sapiens; for GI50: read-out: GI50
SK-MEL-28 (Melanoma) = assay: NCI-60 screen (SRB, 48 h); details: Homo sapiens; for GI50: SK-MEL-28; for IC (TGI): SK-MEL-28, 48 h, read-out: TGI; for CC50: SK-MEL-28, read-out: LC50
Ovarian Cancer subpanel = assay: NCI-60 screen, subpanel; details: Homo sapiens; for IC (TGI): 48 h, read-out: TGI MG_MID; for GI50: read-out: GI50 MG_MID; for CC50: read-out: LC50 MG_MID
ACHN (Renal cancer) = assay: NCI-60 screen (SRB, 48 h); details: for GI50 / IC (TGI) / CC50: Homo sapiens; for IC (TGI): 48 h, read-out: TGI; for CC50: read-out: LC50
[2] = system: NCI/ADR-RES (Ovarian cancer); assay: NCI-60 screen (SRB, 48 h); details: Homo sapiens; for IC (TGI): 48 h, read-out: TGI; for CC50: read-out: LC50
[3] = system: NCI-H460 (NSC lung cancer); assay: NCI-60 screen (SRB, 48 h); details: Homo sapiens; for GI50: NCI-H460; for IC (TGI): NCI-H460, 48 h, read-out: TGI
EKVX (NSC lung cancer) = assay: NCI-60 screen (SRB, 48 h); details: Homo sapiens; for IC (TGI): 48 h, read-out: TGI; for CC50: read-out: LC50
Breast cancer subpanel = assay: NCI-60 screen, subpanel; details: Homo sapiens; for IC (TGI): 48 h, read-out: TGI MG_MID; for GI50: read-out: GI50 MG_MID; for CC50: read-out: LC50 MG_MID
Colon Cancer subpanel = assay: NCI-60 screen, subpanel; details: Homo sapiens; for IC (TGI): 48 h, read-out: TGI MG_MID; for GI50: read-out: GI50 MG_MID; for CC50: read-out: LC50 MG_MID
SNB-75 (CNS cancer) = assay: NCI-60 screen (SRB, 48 h); details: for GI50 / IC (TGI) / CC50: Homo sapiens; for GI50: SNB-75; for IC (TGI): SNB-75, 48 h, read-out: TGI; for CC50: SNB-75, read-out: LC50
RXF 393 (Renal cancer) = assay: NCI-60 screen (SRB, 48 h); details: Homo sapiens; for GI50: RXF 393; for IC (TGI): RXF 393, 48 h, read-out: TGI; for CC50: RXF 393, read-out: LC50
U251 (CNS cancer) = assay: NCI-60 screen (SRB, 48 h); details: for GI50 / IC (TGI) / CC50: Homo sapiens; for GI50: U-251; for IC (TGI): U-251, 48 h, read-out: TGI; for CC50: U-251, read-out: LC50
T-47D (Breast cancer) = assay: NCI-60 screen (SRB, 48 h); details: Homo sapiens, T47D; for IC (TGI): 48 h, read-out: TGI; for CC50: read-out: LC50
SW-620 (Colon cancer) = assay: NCI-60 screen (SRB, 48 h); details: Homo sapiens; for GI50: SW-620; for IC (TGI): SW-620, 48 h, read-out: TGI; for CC50: SW-620, read-out: LC50
SK-OV-3 (Ovarian cancer) = assay: NCI-60 screen (SRB, 48 h); details: Homo sapiens; for GI50: SK-OV-3; for IC (TGI): SK-OV-3, 48 h, read-out: TGI; for CC50: SK-OV-3, read-out: LC50
HL-60(TB) (Leukemia) = assay: NCI-60 screen (SRB, 48 h); assay type: cell-based; details: Homo sapiens; for IC (TGI): 48 h
M14 (Melanoma) = assay: NCI-60 screen (SRB, 48 h); details: Homo sapiens; for GI50: M14; for IC (TGI): M14, 48 h, read-out: TGI
786-0 (Renal cancer) = assay: NCI-60 screen (SRB, 48 h); details: for GI50: 786-0; for IC (TGI): 786-0, 48 h, read-out: TGI
MOLT-4 (Leukemia) = assay: NCI-60 screen (SRB, 48 h); details: Homo sapiens; for GI50: MOLT-4; for IC (TGI): MOLT-4, 48 h, read-out: TGI
[4] = read-out: LC50 (the source's name)

## Cc1ccc(S(=O)(=O)OC[C@@]2(C)CC[C@]3(C)CC[C@]4(C)C(=C3C2)C=C[C@@H]2[C@@]3(C)CCCNC(C)(C)[C@@H]3CC[C@]24C)cc1 [Compound 16]
RPMI-8226 (Leukemia)
  GI50: 2.12 µM
  IC (TGI): 4.63 µM
  CC50: > 100 µM
SR (Leukemia)
  GI50: 0.31 µM
  CC50: > 100 µM
OVCAR-4 (Ovarian cancer)
  IC (TGI): 3.16 µM
  GI50: 1.66 µM
  CC50: 6.02 µM
HOP-92 (NSC lung cancer)
  GI50: 1.45 µM
  IC (TGI): 2.97 µM
  CC50: 6.11 µM
[1]
  GI50: 1.59 µM
  IC (TGI): 3.22 µM
  CC50: 6.51 µM
LOX IMVI (Melanoma); 48 h
  IC (TGI): 3.02 µM
LOX IMVI (Melanoma); 48 h, 1 dose 10 µM, read-out: Growth % of the Most Sensitive Cell Lines
  activity at 10 µM: -99.2%
LOX IMVI (Melanoma)
  GI50: 1.63 µM
SK-MEL-28 (Melanoma)
  GI50: 1.77 µM
  IC (TGI): 3.26 µM
  CC50: 5.97 µM
Ovarian Cancer subpanel
  IC (TGI): 3.68 µM
  GI50: 1.86 µM
  CC50: 29.4 µM
ACHN (Renal cancer)
  GI50: 1.72 µM
  IC (TGI): 3.1 µM
  CC50: 5.5 µM
[2]
  GI50: 2.05 µM
  IC (TGI): 4.59 µM
  CC50: > 100 µM
[3]
  GI50: 1.85 µM
  IC (TGI): 3.5 µM
EKVX (NSC lung cancer)
  GI50: 1.7 µM
  IC (TGI): 3.29 µM
  CC50: 6.35 µM
Breast cancer subpanel
  IC (TGI): 3.5 µM
  GI50: 1.67 µM
  CC50: 7.57 µM
Colon Cancer subpanel
  IC (TGI): 3.3 µM
  GI50: 1.64 µM
  CC50: 6.94 µM
SNB-75 (CNS cancer)
  GI50: 1.61 µM
  IC (TGI): 3.1 µM
  CC50: 5.97 µM
RXF 393 (Renal cancer)
  GI50: 1.35 µM
  IC (TGI): 2.86 µM
  CC50: 6.05 µM
U251 (CNS cancer)
  GI50: 1.66 µM
  IC (TGI): 3.17 µM
  CC50: 6.07 µM
U251 (CNS cancer); U251, 1 dose 10 µM
  Growth % of the Most Sensitive Cell Lines: −95.86%
T-47D (Breast cancer)
  GI50: 1.55 µM
  IC (TGI): 3.26 µM
  CC50: 6.85 µM
SW-620 (Colon cancer)
  GI50: 1.78 µM
  IC (TGI): 3.54 µM
  CC50: 7.04 µM
SK-OV-3 (Ovarian cancer)
  GI50: 1.79 µM
  IC (TGI): 3.25 µM
  CC50: 5.91 µM
HL-60(TB) (Leukemia)
  GI50: 1.98 µM
  IC (TGI): 4.02 µM
M14 (Melanoma)
  GI50: 1.8 µM
  IC (TGI): 3.62 µM
786-0 (Renal cancer); 786-0, 1 dose 10 µM
  Growth % of the Most Sensitive Cell Lines: −90.69%
786-0 (Renal cancer); Homo sapiens
  GI50: 1.84 µM
  IC (TGI): 3.51 µM
MOLT-4 (Leukemia)
  GI50: 1.84 µM
  IC (TGI): 4.16 µM

## CC1(C)NCCC[C@]2(C)[C@H]3C=CC4=C5C[C@@](C)(CO)CC[C@]5(C)CC[C@@]4(C)[C@]3(C)CC[C@@H]12 [Compound 6, azepano-glycyrrhetol-diene]
RPMI-8226 (Leukemia)
  GI50: 3.91 µM
  IC (TGI): 14.9 µM
  CC50: 52.9 µM
SR (Leukemia)
  TGI: 7.17 µM
  GI50: 2.42 µM
  CC50: > 100 µM
OVCAR-4 (Ovarian cancer)
  IC (TGI): 20.8 µM
  GI50: 5.63 µM
  CC50: 63.1 µM
HOP-92 (NSC lung cancer)
  GI50: 3.1 µM
  IC (TGI): 14.6 µM
  CC50: 47 µM
[1]
  GI50: 10.4 µM
  IC (TGI): 24 µM
  CC50: 55.1 µM
LOX IMVI (Melanoma); 48 h
  IC (TGI): 6.76 µM
LOX IMVI (Melanoma)
  GI50: 2.49 µM
LOX IMVI (Melanoma); [4]
  CC50: 29 µM
SK-MEL-28 (Melanoma)
  GI50: 5.87 µM
  IC (TGI): 18.4 µM
  CC50: 44 µM
Ovarian Cancer subpanel
  IC (TGI): 15.4 µM
  GI50: 4.67 µM
  CC50: 41.9 µM
ACHN (Renal cancer); 1 dose 10 µM
  Growth % of the Most Sensitive Cell Lines: −95.35%
ACHN (Renal cancer)
  GI50: 2.93 µM
  IC (TGI): 9.56 µM
  CC50: 33 µM
[2]
  GI50: 2.02 µM
  IC (TGI): 4.52 µM
  CC50: 10.4 µM
[3]
  GI50: 4.17 µM
  IC (TGI): 15.2 µM
[3]; NCI-H460, read-out: LC50
  CC50: 46.2 µM
EKVX (NSC lung cancer)
  GI50: 2.77 µM
  IC (TGI): 8.27 µM
  CC50: 38.4 µM
Breast cancer subpanel
  IC (TGI): 19.1 µM
  GI50: 6.68 µM
  CC50: 55.1 µM
Colon Cancer subpanel
  IC (TGI): 16.7 µM
  GI50: 5.11 µM
  CC50: 48.2 µM
SNB-75 (CNS cancer)
  GI50: 3.43 µM
  IC (TGI): 14.8 µM
  CC50: 46.5 µM
SNB-75 (CNS cancer); SNB-75, 1 dose 10 µM
  Growth % of the Most Sensitive Cell Lines: −97.70%
RXF 393 (Renal cancer)
  GI50: 1.84 µM
  IC (TGI): 4.15 µM
  CC50: 9.35 µM
U251 (CNS cancer)
  GI50: 4.17 µM
  IC (TGI): 15.9 µM
  CC50: 45.5 µM
T-47D (Breast cancer)
  GI50: 5.38 µM
  IC (TGI): 20.9 µM
  CC50: 59.5 µM
SW-620 (Colon cancer)
  GI50: 5.76 µM
  IC (TGI): 18.8 µM
  CC50: 47 µM
SK-OV-3 (Ovarian cancer)
  GI50: 14.5 µM
  IC (TGI): 28.6 µM
  CC50: 56.2 µM
HL-60(TB) (Leukemia)
  GI50: 2.63 µM
  IC (TGI): 7.02 µM
HL-60(TB) (Leukemia); [4]
  CC50: 32.6 µM
M14 (Melanoma)
  GI50: 3.91 µM
  IC (TGI): 14.8 µM
M14 (Melanoma); M14, read-out: LC50
  CC50: 41.5 µM
786-0 (Renal cancer); Homo sapiens
  GI50: 2.66 µM
  IC (TGI): 8.59 µM
786-0 (Renal cancer); Homo sapiens, 786-0, read-out: LC50
  CC50: 40.9 µM
MOLT-4 (Leukemia)
  GI50: 2.46 µM
  IC (TGI): 6.8 µM
MOLT-4 (Leukemia); MOLT-4, read-out: LC50
  CC50: 38.2 µM

From article PMC7914897, “Cytotoxic Potential of a-Azepano- and 3-Amino-3,4-SeCo-Triterpenoids” (International Journal of Molecular Sciences, 2021)
